PMC10525570, “Antiviral Activity of Anthranilamide Peptidomimetics against Herpes Simplex Virus 1 and a Coronavirus” (Antibiotics, 2023)
“Also recorded” adds a separate entry of the source. Like-named read-outs stand apart in the source and are kept apart here.

Legend:
MHV-1 [1] = test: Virus pre-treatment (direct virus inactivation) plaque assay, MHV-1; assay type: cell-based, Murine hepatitis virus 1; conditions: for Plaque formation, MHV-1: quadruplicate
Experimental: (§1) The peptidomimetics were evaluated for their antiviral activity using three different assays: virus pre-treatment, cell pre-treatment, and post-treatment assays, with the main distinction being the timing of the compound addition. Cells were seeded in 24-well plates at a density of 2.5 × 10^5 cells/well and incubated for 48 h at 37 °C. In all assays, the compounds were added to DMEM medium in the absence of fetal bovine serum (FBS). All experiments were performed in duplicate with two independent replicates. The inhibitory effect on viral infectivity was determined by comparing the number of plaques in wells treated with the test compounds (peptidomimetics) to the plaques observed in the control wells (cells infected with the virus without test compounds).
(§2) Virus pre-treatment assay: In this assay, the test compounds were added to the virus (1 × 10^3 PFU/mL) and incubated for 3 h at 37 °C. After incubation, each mixture (virus/peptide) was diluted in DMEM medium containing 10% FBS to neutralize the peptides or mimics. The dilutions were then added to the cell monolayers for 1 h, followed by the addition of an agar overlay containing 1% agar. The cells were further incubated for 72 h, after which they were fixed, stained, and the number of plaques was counted.

HSV-1 [2] = test: Virus pre-treatment (direct virus inactivation) plaque assay, HSV-1; assay type: cell-based, herpes simplex virus 1
Experimental: as §1, §2

[3] = MTT cytotoxicity assay, Vero cells; assay type: cell-based; conditions: African green monkey, read-out: HSV-1 (Vero Cells) CC50
Experimental: (§3) The MTT assay was used to assess the cytotoxicity of compounds against the viral host (A9 and Vero) cells. This assay relies on the reduction of the yellow MTT compound to a dark blue formazan product by viable and metabolically active cells. Viral host cells were cultured in 96-well plates and incubated at 37 °C in a 5% CO2 atmosphere, treated with various concentrations of the test compounds together with further incubation for 24 h. After incubation, 100 μL of a 5 mg/mL MTT solution was added to each well and incubated for 2–4 h at 37 °C. The supernatant was then discarded, and 100 μL of 100% DMSO was added to dissolve the formazan salts with vigorous agitation for 10 min at room temperature. The absorbance at 540 nm was measured using a spectrophotometer. Cytotoxicity was determined by comparing the absorbance values in the test and control wells expressed as a percentage. A total of 100 μL DMSO was used for negative control (ctr−), while 100 μL of culture medium represented the positive control (ctr+). All experiments were repeated three times, and the mean values with standard deviations are reported. Nonlinear regression analysis was performed using GraphPad Prism software to determine the CC50 (concentration at which 50% of cells are killed).

MHV-1 [4] = test: Transmission electron microscopy of treated MHV-1; design: species or system Murine hepatitis virus 1; conditions: virus treated at 37 °C for 2 h
Experimental: (§4) The viruses were treated with compound 11 for MHV-1 and 14 for HSV-1, both at 37 °C for 2 h. Subsequently, 10 µL of the treated mixture was placed on a glow-discharged carbon-coated 200 mesh copper grid and allowed to evaporate for 5 min. The sample was then stained with 1% phosphotungstic acid (pH 6.5) for 30 s to improve the contrast. After air-drying, the grids were examined using an FEI Tecnai G2 20 TEM machine.

MHV-1 [5] = test: Post-viral infection plaque assay, MHV-1 on A9 cells; assay type: cell-based, Murine hepatitis virus 1; conditions: compound added 3 h post-infection, 15.625, 7.5, 3.75 µM
Experimental: (§5) In order to determine if compounds 11 and 14 were able to inhibit aspects of viral infection after the initial binding stage to host mammalian cells, the same concentrations of the compounds were administered to the cells after a 3-h interval post-infection.
as §1
(§6) Post-viral infection assay: The cells were first incubated with viruses (1 × 10^3 PFU/mL) for 3 h at 37 °C to ensure complete cellular entry. Following that, the test compounds were added and incubated for 24 h at 37 °C. […] The cells were then fixed, stained, and the number of plaques was determined.

[6] = MTT cytotoxicity assay, A9 cells; assay type: cell-based; conditions: mouse, read-out: MHV-1 (A9 Cells) CC50
Experimental: as §3

MHV-1 [7] = test: Cell pre-treatment plaque assay, MHV-1 on A9 cells; assay type: cell-based, Murine hepatitis virus 1; conditions: A9 cells preincubated 24 h with 15.625, 7.5, 3.75 µM before infection
Experimental: (§7) In order to explore additional potential mechanisms, the ability of compounds 11 and 14 to reduce the ability of the two viruses to bind to their respective mammalian host cells was examined. Three concentrations (15.625 µM, 7.5 µM, and 3.75 µM) of compounds 11 and 14, all below their cytotoxic thresholds, were allowed to interact with A9 and Vero cells for 24-h before virus infection. The impact of these interactions was assessed using a plaque assay to determine inhibitory effects.
as §1, with “All experiments were performed in duplicate with two independent replicates.” left out
(§8) Cell pre-treatment assay: The cells were treated with the test compounds and incubated for 24 h at 37 °C. […] The cells were then fixed, stained, and the number of plaques was determined.

HSV-1 [8] = test: Cell pre-treatment plaque assay, HSV-1 on Vero cells; assay type: cell-based, herpes simplex virus 1; conditions: Vero cells preincubated 24 h with 15.625, 7.5, 3.75 µM before infection
Experimental: as §7
as §1, with “All experiments were performed in duplicate with two independent replicates.” left out
as §8

HSV-1 [9] = test: Post-viral infection plaque assay, HSV-1 on Vero cells; assay type: cell-based, herpes simplex virus 1; conditions: compound added 3 h post-infection, 15.625, 7.5, 3.75 µM
Experimental: as §5, §1, §6

HSV-1 [10] = test: Transmission electron microscopy of treated HSV-1; design: species or system herpes simplex virus 1; conditions: virus treated at 37 °C for 2 h
Experimental: as §4

[11] = Murine coronavirus, virus pre-treatment 3 h at 37 °C, plaque assay, read-out: MHV-1 IC50
[12] = Human alphaherpesvirus 1, virus pre-treatment 3 h at 37 °C, plaque assay, read-out: HSV-1 IC50
[13] = Murine coronavirus, Table 2, A9 cells, read-out: MHV-1 (A9 Cells) IC50
[14] = Human alphaherpesvirus 1, Table 2, Vero cells, read-out: HSV-1 (Vero Cells) IC50

Compound	IC50 (MHV-1 [1]; [11]) [µM]	IC50 (HSV-1 [2]; [12]) [µM]	IC50 (MHV-1 [1]; [13]) [µM]	IC50 (HSV-1 [2]; [14]) [µM]	further results
NCCNC(=O)C(Cc1c[nH]c2ccccc12)NC(=O)c1ccccc1NC(=O)c1ccc2ccccc2c1 (stereo not shown) [Compound 1]	> 62.5	> 62.5			
NCCNC(=O)C(Cc1c[nH]c2ccccc12)NC(=O)c1cc(Br)ccc1NC(=O)c1ccc2ccccc2c1 (stereo not shown) [Compound 2]	> 62.5	> 62.5			
NCCNC(=O)C(Cc1c[nH]c2ccccc12)NC(=O)c1cc(F)ccc1NC(=O)c1ccc2ccccc2c1 (stereo not shown) [Compound 3]	> 62.5	> 62.5			
NCCNC(=O)C(Cc1c[nH]c2ccccc12)NC(=O)c1cc(Cl)ccc1NC(=O)c1ccc2ccccc2c1 (stereo not shown) [Compound 4]	> 62.5	> 62.5			
COc1ccc(NC(=O)c2ccc3ccccc3c2)c(C(=O)NC(Cc2c[nH]c3ccccc23)C(=O)NCCN)c1 (stereo not shown) [Compound 5]	> 62.5	> 62.5			
N=C(N)NCCNC(=O)C(Cc1c[nH]c2ccccc12)NC(=O)c1ccccc1NC(=O)c1ccc2ccccc2c1 (stereo not shown) [Compound 6]	> 62.5	> 62.5			
N=C(N)NCCNC(=O)C(Cc1c[nH]c2ccccc12)NC(=O)c1cc(Br)ccc1NC(=O)c1ccc2ccccc2c1 (stereo not shown) [Compound 7]	> 62.5	32.7	> 62.5	32.8	CC50 at 24 h [3]: 127 µM
N=C(N)NCCNC(=O)C(Cc1c[nH]c2ccccc12)NC(=O)c1cc(F)ccc1NC(=O)c1ccc2ccccc2c1 (stereo not shown) [Compound 8]	> 62.5	> 62.5			
N=C(N)NCCNC(=O)C(Cc1c[nH]c2ccccc12)NC(=O)c1cc(Cl)ccc1NC(=O)c1ccc2ccccc2c1 (stereo not shown) [Compound 9]	> 62.5	14.8	> 62.5	14.9	CC50 at 24 h [3]: 45 µM
COc1ccc(NC(=O)c2ccc3ccccc3c2)c(C(=O)NC(Cc2c[nH]c3ccccc23)C(=O)NCCNC(=N)N)c1 (stereo not shown) [Compound 10]	> 62.5	> 62.5			
NCCNC(=O)C(Cc1c[nH]c2ccccc12)NC(=O)c1cc(-c2ccc3ccccc3c2)ccc1N (stereo not shown) [Compound 11]			2.18	34.9	Effect on MHV-1 viral envelope (TEM) (MHV-1 [4]): disrupted viral envelope; also recorded: complete disruption of the viral envelope; Antiviral activity against MHV-1, post-infection treatment (MHV-1 [5]): no noticeable antiviral activity; also recorded: Neither of the compounds was able to affect viral replication; CC50 at 24 h [3]: 16.7 µM; CC50 at 24 h [6]: 20.5 µM; Inhibition of MHV-1 infection, cell pre-treatment (MHV-1 [7]): none of the compounds could inhibit virus infection; also recorded: Neither of the compounds was able to affect viral replication; Plaque formation, MHV-1 (MHV-1 [1]; MHV-1 treated with 31.25 µM): complete inhibition of plaque formation; Plaque formation, MHV-1 (MHV-1 [1]; MHV-1 treated with 62.5 µM): complete inhibition of plaque formation; IC50 (MHV-1 [1]; Murine coronavirus, read-out: MHV-1 IC50): 2.38 µM; inhibition at 2.18 µM (MHV-1 [1]; Murine coronavirus, at 2.18 µM): > 50%; Inhibition of HSV-1 infection, cell pre-treatment (HSV-1 [8]): none of the compounds could inhibit virus infection; also recorded: Neither of the compounds was able to affect viral replication; IC50 (HSV-1 [2]; Human alphaherpesvirus 1, read-out: HSV-1 IC50): 34.9 µM; Antiviral activity against HSV-1, post-infection treatment (HSV-1 [9]): no noticeable antiviral activity; also recorded: Neither of the compounds was able to affect viral replication
NCCNC(=O)C(Cc1c[nH]c2ccccc12)NC(=O)c1cc(-c2ccc(-c3ccccc3)cc2)ccc1N (stereo not shown) [Compound 12]	> 62.5	> 62.5			
COc1ncc(-c2ccc(N)c(C(=O)NC(Cc3c[nH]c4ccccc34)C(=O)NCCN)c2)c(OC)n1 (stereo not shown) [Compound 13]	> 62.5	> 62.5			
NCCNC(=O)C(Cc1c[nH]c2ccccc12)NC(=O)c1cc(-c2ccccc2-c2ccccc2)ccc1N (stereo not shown) [Compound 14]	6.3	13	6.3	13	Antiviral activity against MHV-1, post-infection treatment (MHV-1 [5]): no noticeable antiviral activity; also recorded: Neither of the compounds was able to affect viral replication; CC50 at 24 h [3]: 15.2 µM; CC50 at 24 h [6]: 10.2 µM; Inhibition of MHV-1 infection, cell pre-treatment (MHV-1 [7]): none of the compounds could inhibit virus infection; also recorded: Neither of the compounds was able to affect viral replication; Inhibition of HSV-1 infection, cell pre-treatment (HSV-1 [8]): none of the compounds could inhibit virus infection; also recorded: Neither of the compounds was able to affect viral replication; Plaque formation, HSV-1 (HSV-1 [2]; HSV-1 treated with 31.25 µM): complete inhibition of plaque formation; Plaque formation, HSV-1 (HSV-1 [2]; HSV-1 treated with 62.5 µM, four replicates): complete inhibition of plaque formation; inhibition at 13 µM (HSV-1 [2]; Human alphaherpesvirus 1, at 13 µM): > 50%; Effect on HSV-1 viral envelope (TEM) (HSV-1 [10]): partial disruption of the HSV-1 envelope; also recorded: partial destruction of the HSV-1 envelope; Antiviral activity against HSV-1, post-infection treatment (HSV-1 [9]): no noticeable antiviral activity; also recorded: Neither of the compounds was able to affect viral replication
NCCCCC(N)C(=O)NCCNC(=O)C(Cc1c[nH]c2ccccc12)NC(=O)c1cc(Br)ccc1NC(=O)c1ccc2ccccc2c1 (stereo not shown) [Compound 15]	11.1	> 62.5	11.1	> 62.5	CC50 at 24 h [6]: 62.7 µM
NCCCCC(N)C(=O)NCCNC(=O)C(Cc1c[nH]c2ccccc12)NC(=O)c1cc(Br)ccc1NC(=O)c1ccc(-c2ccccc2)cc1 (stereo not shown) [Compound 16]	22.5	> 62.5	22.6	> 62.5	CC50 at 24 h [6]: 81.6 µM
NCCCCC(N)C(=O)NCCNC(=O)C(Cc1c[nH]c2ccccc12)NC(=O)c1cc(Br)ccc1NC(=O)c1cccc(-c2ccccc2)c1 (stereo not shown) [Compound 17]	11.8	> 62.5	11.8	> 62.5	CC50 at 24 h [6]: 114 µM
